Laboratory results published in patent US5326883A, “Oxime ether derivatives having lipoxygenase inhibitory activity” (Abbott Laboratories, priority 1992, dated 1994).

Each molecule was assayed against T1, 5-Lipoxygenase (Homo sapiens, UniProt P09917) (assay: Calcium ionophore-induced LTB4 biosynthesis in human whole blood (5-lipoxygenase inhibition)). Settings: human heparinized whole blood; 15 min preincubation at 37° C; A23187 8.3 μM, 30 min; LTB4 by radioimmunoassay.
T1 construct: Human heparinized whole blood was preincubated with test compounds or vehicle for 15 min; endogenous in cells; host or cells: human heparinized whole blood (blood leukocytes)
T1 sequence (P09917 1-674): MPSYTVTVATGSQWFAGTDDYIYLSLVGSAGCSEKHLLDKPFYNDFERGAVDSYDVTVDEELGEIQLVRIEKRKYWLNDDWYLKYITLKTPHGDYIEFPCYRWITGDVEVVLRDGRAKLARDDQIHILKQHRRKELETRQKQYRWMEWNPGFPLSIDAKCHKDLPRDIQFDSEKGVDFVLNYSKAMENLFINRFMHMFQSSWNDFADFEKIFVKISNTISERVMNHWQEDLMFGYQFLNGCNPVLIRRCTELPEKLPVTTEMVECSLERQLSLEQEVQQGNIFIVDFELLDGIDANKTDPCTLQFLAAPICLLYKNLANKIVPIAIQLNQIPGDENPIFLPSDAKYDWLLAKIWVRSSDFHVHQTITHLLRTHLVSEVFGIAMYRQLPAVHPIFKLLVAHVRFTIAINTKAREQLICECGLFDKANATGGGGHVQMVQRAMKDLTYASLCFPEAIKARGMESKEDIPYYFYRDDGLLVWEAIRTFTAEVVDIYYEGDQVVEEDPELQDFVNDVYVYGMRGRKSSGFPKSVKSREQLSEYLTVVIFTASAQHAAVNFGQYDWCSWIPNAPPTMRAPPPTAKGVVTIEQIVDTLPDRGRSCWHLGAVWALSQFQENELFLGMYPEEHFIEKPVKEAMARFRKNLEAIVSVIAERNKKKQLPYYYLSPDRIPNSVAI
Format: cell-based
Experimental: Inhibition of leukotriene biosynthesis was evaluated in an assay, involving calcium ionophore-induced LTB4 biosynthesis expressed human whole blood. […] The methanol extract was analyzed for LTB4 using a commercially available radioimmunoassay. |In Vitro Inhibitory Potencies of Compounds of this Invention […] |in Human Whole Blood

SMILES | IC50 [nM]
CCCCCC=NOCCN(O)C(N)=O [Example 2, hexyloximyl-O-2-ethyl-N-hydroxyurea] | 100
CC(=NOCCN(O)C(N)=O)c1cc2ccccc2s1 [Example 1, 1-(benzo[b]thien-2-yl)ethyloximyl-O-2-ethyl-N-hydroxyurea] | 100
NC(=O)N(O)CCON=Cc1cccn1Cc1ccc(Cl)cc1 [Example 3, 1-(4-chlorobenzyl)-pyrro-2-ylmethyloximyl-O-2-ethyl-N-hydroxyurea] | 160

Continued, values first:

IC50 [nM] | SMILES
140 | CC(CN(O)C(N)=O)O/N=C/c1ccc(Oc2ccc(F)cc2)o1 (stereo not shown) [Example 8, 5-(4-fluorophenoxy)fur-2-ylmethyl-E-oximyl-O-2-(2-methyl)ethyl-N-hydroxyurea]
100 | CC(CN(O)C(N)=O)O/N=C\c1ccc(Oc2ccc(F)cc2)o1 (stereo not shown) [Example 9, 5-(4-fluorophenoxy)fur-2-ylmethyl-Z-oximyl-O-2-(2-methyl)ethyl-N-hydroxyurea]
100 | NC(=O)N(O)CCON=Cc1ccc(Sc2ccccc2)o1 [Example 10, 5-(phenylthio)fur-2-ylmethyloximyl-O-2-ethyl-N-hydroxyurea]
100 | NC(=O)N(O)CCON=Cc1cccc(Oc2ccc(F)cc2)c1 [Example 4, 3-(4-fluorophenoxy)phenylmethyloximyl-O-2-ethyl-N-hydroxyurea]

What follows are molecules tested on biosynthesis of leukotrienes (assay: Inhibition of leukotriene biosynthesis in vivo, rat peritoneal anaphylaxis model, oral). Settings: Oral Dose at 30 μmol/kg, gavage one hour prior to antigen challenge; rat peritoneal fluid 15 min after challenge.
Experimental: Inhibition of the biosynthesis of leuktrienes in vivo after oral administration of compound was determined using a rat peritoneal anaphylaxis model in a similar manner as that described by Young and coworkers (Young, P. R.; Dyer, R. D.; Carter, G. W. Fed. Proc., Fed. Am. Soc. Exp. Biol. 1985, 44, 1185). In this model rats were injected intraperitoneally (ip) with rabbit antibody to bovine serum albumin (BSA) and three hours later injected ip with BSA to induce an antgen-antibody response. Rats were sacrificed 15 minutes after this challenge and the peritoneal fluids were collected and analyzed for leukotriene levels. Test compounds were administered by gavage one hour prior to the antigen challenge. Percent inhibition values were determined by comparing the treatment group to the mean of the control group.

SMILES | % Inhibition of Leukotrienes [%]
CC(CO/N=C/c1ccc(Oc2ccc(F)cc2)o1)N(O)C(N)=O (stereo not shown) [Example 7, 5-(4-fluorophenoxy)fur-2-ylmethyl-E-oximyl-O-2-(1-methyl)ethyl-N-hydroxyurea] | 56
CC(CO/N=C\c1ccc(Oc2ccc(F)cc2)o1)N(O)C(N)=O (stereo not shown) [Example 6, 5-(4-fluorophenoxy)fur-2-ylmethyl-Z-oximyl-O-2-(1-methyl)ethyl-N-hydroxyurea] | 70
CC(CN(O)C(N)=O)O/N=C\c1ccc(Oc2ccc(F)cc2)o1 (stereo not shown) [Example 9, 5-(4-fluorophenoxy)fur-2-ylmethyl-Z-oximyl-O-2-(2-methyl)ethyl-N-hydroxyurea] | 64
